Values quoted from earlier work, collected in US20050202566A1, “Device and method for determining parameters” (priority 2002, published 2005).

Tested on: thrombus formation
Settings: ex vivo flow models using whole blood; with increasing shear

SMILES | inhibition of thrombus formation as a function of shear
O=C(O)COc1ccc(CCNS(=O)(=O)c2ccccc2)s1 [Linotroban] | increasingly inhibit thrombus formation
CC(=O)Oc1ccccc1C(=O)O [aspirin] | increasingly inhibit thrombus formation
